The values that follow come from paper PMC12738692, “Identification, characterization, and structure-activity relationship of the ASIC3-selective peptide WRPRFa” (Communications Chemistry, 2025).

Positions count from the first letter of the chain named. Read-outs that look alike come from different tables or passages of the source. Where no end group is shown, it is not given here.

The target of assay [1] is T1, human ASIC3 (Homo sapiens, UniProt Q9UHC3).
T1 construct: CHO cells stably expressing human ASIC3 (NM_004769.1)
T1 sequence (Q9UHC3 1-531): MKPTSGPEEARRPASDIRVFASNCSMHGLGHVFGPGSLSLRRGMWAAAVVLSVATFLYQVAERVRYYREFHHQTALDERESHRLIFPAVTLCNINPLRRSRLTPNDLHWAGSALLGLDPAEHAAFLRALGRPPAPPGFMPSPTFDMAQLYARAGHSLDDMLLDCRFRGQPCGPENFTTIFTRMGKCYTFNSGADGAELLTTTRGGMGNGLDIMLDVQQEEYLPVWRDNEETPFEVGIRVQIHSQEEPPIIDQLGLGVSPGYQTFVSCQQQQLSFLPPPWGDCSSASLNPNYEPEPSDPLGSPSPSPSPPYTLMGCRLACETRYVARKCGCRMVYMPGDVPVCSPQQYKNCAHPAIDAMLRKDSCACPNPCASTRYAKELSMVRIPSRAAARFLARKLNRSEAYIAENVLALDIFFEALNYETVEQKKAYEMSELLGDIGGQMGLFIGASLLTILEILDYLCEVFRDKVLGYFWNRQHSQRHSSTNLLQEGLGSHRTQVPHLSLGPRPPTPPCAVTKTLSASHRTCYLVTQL
Briefly: cell-based.

Another assay addresses T2, ASIC3 E421Q (Homo sapiens, UniProt Q9UHC3, E421Q).
T2 construct: human ASIC3 (NM_004769.4); P2A-mCherry reporter (C, cleaved yes); expressed in transfected cells; host or cells: CHO cells (85050302, Sigma), transient transfection
T2 sequence (Q9UHC3 1-531 E421Q): T1 sequence (Q9UHC3 1-531) with E421Q
Briefly: MPC peptide activity on ASIC3 E421Q mutant. It is filed as cell-based. The conditions noted are these: Emax constrained, read-out: EC50 (95% CI).

For assay [2], the target named is T1, human ASIC3. The class given is cell-based. The conditions noted are these: from pH-dependence of activation.
The next assay concerns the target T3, ASIC3 E378Q (Homo sapiens, UniProt Q9UHC3, E378Q).
T3 construct: human ASIC3 (NM_004769.4); P2A-mCherry reporter (C, cleaved yes); expressed in transfected cells; host or cells: CHO cells (85050302, Sigma), transient transfection
T3 sequence (Q9UHC3 1-531 E378Q): T1 sequence (Q9UHC3 1-531) with E378Q
Briefly: MPC peptide activity on ASIC3 E378Q mutant. The class given is cell-based. To be noted: read-out: EC50 (95% CI). The method, then: We individually mutated the four glutamates to glutamine to remove their charge but maintain the side chain structure (Fig. 4C). We tested each mutant by incubating HEK cells stably expressing ASIC3 or CHO cells transfected with mutant ASIC3 with 30 µM WRPRFa before a pH 6.3 acid stimulus.
All mutagenesis was performed at Genscript, and sequences were verified by nanopore sequencing by Plasmidsaurus (Eugene, OR). The numbering of ASIC3 amino acids is based on RefSeq NP_004760.1. Plasmids were transfected into CHO cells using Lipofectamine 3000 (Thermo) according to the manufacturer’s protocol. Cells were used for patch-clamp recordings 24–48 h after transfection.
CHO and HEK cells were tested in the whole-cell configuration on MPC platforms using an Axopatch 200B amplifier (Axon Instruments, San Jose, CA) and a Digidata 1322A or Digidata 1440A digitizer (Axon) using pClamp 9.2 or 10.7 (Molecular Devices, San Jose, CA), respectively. When testing transfected cells, red fluorescence from the cleaved mCherry reporter was used to identify cells expressing ASIC3, ASIC131, or ASIC313. For cells expressing transfected ASIC1a or ASIC2a, the green signal from the cleaved eGFP reporter was used. All electrophysiology data were analyzed with Clampfit 11.1 (Molecular Devices).

Assay [3] deals with T1, human ASIC3. The class given is cell-based. The conditions noted are these: 30 µM, QPatch II.
In the next assay the target is T4, ASIC131 (Homo sapiens, UniProt Q9UHC3).
T4 construct: placing human ASIC1a and human ASIC3 ORFs in tandem; expressed in transfected cells; host or cells: WT CHO cells (85050302, Sigma), transient transfection
T4 sequence (Q9UHC3 1-531): T1 sequence (Q9UHC3 1-531)
Put plainly: MPC WRPRFa concentration-response on concatemer ASIC131. The class given is cell-based. To be noted: read-out: lower limit EC50.

Source text for ASIC131: (§1) For peptide concentration-response curves, Bottom was set to 0 and Top was constrained to ≤ 1 for peptides that approached plateau phase or where I3s/Ipk reached 1. […] For activation- or desensitization-pH curves, Bottom was set to 0 and Top constrained to 1.
Source text for ASIC3 E421Q: as §1

As to WRPRF-NH2 [WRPRFa], the EC50 at human ASIC3 [1] is 6.22 µM; on ASIC3 E421Q it was at least 22.5 µM; at ASIC3 E378Q, 9.59 µM; at ASIC131, at least 32.4 µM. The channels affected was around 90% on human ASIC3 [1] (100 µM, MPC) and 80% at human ASIC3 [3]. Besides, on human ASIC3 [2], the “peptide-bound channels activated by pH 6.3” value is on record as 99.7%.
